According to ChEMBL document CHEMBL1201862, “PubChem BioAssay data set” (2004):
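Test compounds were applied to cells in 96-well plates for 48 hours at 5 doses. GI50 is the concentration that inhibits growth by half.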 Calls of active or inactive are those of the source. Rule as the data show it: active = GI50 up to about 1.1 µM and inactive = higher.

Legend:
Assay in all cases: NCI anticancer screen, dose series, 48 h
LOX IMVI = test system: LOX IMVI
SNB-75 = test system: SNB-75
OVCAR-5 = test system: OVCAR-5
DU-145 = test system: DU-145
SK-MEL-2 = test system: SK-MEL-2
SK-OV-3 = test system: SK-OV-3
Malme-3M = test system: Malme-3M
Hs-578T = test system: Hs-578T
MCF7 = test system: MCF7
NCI-H226 = test system: NCI-H226
786-0 = test system: 786-0
CCRF-CEM = test system: CCRF-CEM
SW-620 = test system: SW-620
SR = test system: SR
HCT-15 = test system: HCT-15
M14 = test system: M14
SNB-19 = test system: SNB-19
HCC 2998 = test system: HCC 2998
TK-10 = test system: TK-10
NCI-H522 = test system: NCI-H522

Q: Which results are given for `CCOC(=O)C1=C(C)N(Cc2ccccc2)C2(O)C=CC(O)=C3C(=O)c4ccccc4C(=O)C312` (stereo not given)?
A: GI50 (LOX IMVI): 14.1 µM (inactive); GI50 (SNB-75): 22.1 µM (inactive); GI50 (OVCAR-5): 15.8 µM (inactive); GI50 (DU-145): 16.5 µM (inactive); GI50 (SK-MEL-2): 13.9 µM (inactive); GI50 (SK-OV-3): 29.6 µM (inactive); GI50 (Malme-3M): 2.43 µM (inactive); GI50 (Hs-578T): 22.4 µM (inactive); GI50 (MCF7): 0.128 µM (active); GI50 (NCI-H226): 20.6 µM (inactive); GI50 (786-0): 13.4 µM (inactive); GI50 (CCRF-CEM): 8.61 µM (inactive); GI50 (SW-620): 13.6 µM (inactive); GI50 (SR): 4.37 µM (inactive); GI50 (HCT-15): 3.82 µM; GI50 (M14): 4.99 µM (inactive); GI50 (SNB-19): 26.5 µM (inactive); GI50 (HCC 2998): 17 µM (inactive); GI50 (TK-10): 18.5 µM (inactive); GI50 (NCI-H522): 11.9 µM (inactive)

Q: `CN(C)c1ccc(/C=C/C=C(/C#N)c2ccccc2)cc1` was tested. Which GI50 (LOX IMVI) did it give?
A: The GI50 was 11.2 µM (inactive).

Q: What about the GI50 (SNB-75) of the same compound?
A: The GI50 was 28.4 µM (inactive).

Q: What about the GI50 (OVCAR-5) of the same compound?
A: The GI50 was > 62.7 µM (inactive).

Q: What about the GI50 (DU-145) of the same compound?
A: Its GI50 is 55.7 µM (inactive).

Q: What about the GI50 (SK-MEL-2) of the same compound?
A: Its GI50 is 13.7 µM (inactive).

Q: And the GI50 (SK-OV-3)?
A: Its GI50 is 34.8 µM (inactive).

Q: And the GI50 (Malme-3M)?
A: The GI50 was 14 µM (inactive).

Q: What about the GI50 (Hs-578T) of the same compound?
A: The GI50 was 21.9 µM (inactive).

Q: What about the GI50 (MCF7) of the same compound?
A: Its GI50 is 17.7 µM (inactive).

Q: And the GI50 (NCI-H226)?
A: The GI50 was 53.1 µM (inactive).

Q: What about the GI50 (786-0) of the same compound?
A: Its GI50 is 28.1 µM (inactive).

Q: What about the GI50 (CCRF-CEM) of the same compound?
A: The GI50 was 22.3 µM (inactive).

Q: And the GI50 (SW-620)?
A: Its GI50 is 6.34 µM (inactive).

Q: What about the GI50 (SR) of the same compound?
A: Its GI50 is 3.64 µM (inactive).

Q: What about the GI50 (HCT-15) of the same compound?
A: The GI50 was 6.87 µM.

Q: And the GI50 (M14)?
A: Its GI50 is 15.8 µM (inactive).

Q: And the GI50 (SNB-19)?
A: Its GI50 is 30.1 µM (inactive).

Q: And the GI50 (HCC 2998)?
A: The GI50 was 30.3 µM (inactive).

Q: And the GI50 (TK-10)?
A: The GI50 was 42.8 µM (inactive).

Q: What about the GI50 (NCI-H522) of the same compound?
A: Its GI50 is 10.5 µM (inactive).

Q: How did the GI50 (LOX IMVI) turn out when `C[C@]12CC[C@H]3[C@@H](CC=C4C[C@@H](O)CC[C@@]43C)[C@@H]1C/C(=C/c1ccccc1)[C@@H]2O` was run?
A: Its GI50 is > 33.6 µM (inactive).

Q: What about the GI50 (SNB-75) of the same compound?
A: Its GI50 is > 41.9 µM (inactive).

Q: And the GI50 (OVCAR-5)?
A: The GI50 was > 46.7 µM (inactive).

Q: And the GI50 (DU-145)?
A: The GI50 was > 42.2 µM (inactive).

Q: What about the GI50 (SK-MEL-2) of the same compound?
A: Its GI50 is 20.9 µM (inactive).

Q: What about the GI50 (SK-OV-3) of the same compound?
A: The GI50 was 37.6 µM (inactive).

Q: And the GI50 (Malme-3M)?
A: The GI50 was 27.5 µM (inactive).

Q: What about the GI50 (Hs-578T) of the same compound?
A: Its GI50 is 43 µM (inactive).

Q: And the GI50 (MCF7)?
A: Its GI50 is > 33 µM (inactive).

Q: And the GI50 (NCI-H226)?
A: Its GI50 is 18.5 µM (inactive).

Q: What about the GI50 (786-0) of the same compound?
A: The GI50 was 22.1 µM (inactive).

Q: And the GI50 (CCRF-CEM)?
A: The GI50 was 14.6 µM (inactive).

Q: What about the GI50 (SW-620) of the same compound?
A: The GI50 was > 51.8 µM (inactive).

Q: What about the GI50 (SR) of the same compound?
A: Its GI50 is 3.85 µM (inactive).

Q: What about the GI50 (HCT-15) of the same compound?
A: The GI50 was 19.7 µM.

Q: And the GI50 (M14)?
A: The GI50 was > 45.1 µM (inactive).

Q: What about the GI50 (SNB-19) of the same compound?
A: Its GI50 is 22.4 µM (inactive).

Q: What about the GI50 (HCC 2998) of the same compound?
A: The GI50 was 17.9 µM (inactive).

Q: And the GI50 (TK-10)?
A: Its GI50 is 27.8 µM (inactive).

Q: And the GI50 (NCI-H522)?
A: Its GI50 is 14.7 µM (inactive).

Q: What does the source list for `CC(NCc1c(O)ccc2c(-c3ccccc3)cc(=O)oc12)C(=O)O` (stereo not given)?
A: GI50 (LOX IMVI): > 100 µM (inactive); GI50 (SNB-75): > 100 µM (inactive); GI50 (OVCAR-5): > 100 µM (inactive); GI50 (DU-145): > 100 µM (inactive); GI50 (SK-MEL-2): > 100 µM (inactive); GI50 (SK-OV-3): > 100 µM (inactive); GI50 (Malme-3M): > 100 µM (inactive); GI50 (Hs-578T): > 100 µM (inactive); GI50 (MCF7): > 100 µM (inactive); GI50 (NCI-H226): > 100 µM (inactive); GI50 (786-0): > 100 µM (inactive); GI50 (CCRF-CEM): > 100 µM (inactive); GI50 (SW-620): > 100 µM (inactive); GI50 (SR): > 100 µM (inactive); GI50 (HCT-15): > 100 µM; GI50 (M14): > 100 µM (inactive); GI50 (SNB-19): > 100 µM (inactive); GI50 (HCC 2998): > 100 µM (inactive); GI50 (TK-10): > 100 µM (inactive); GI50 (NCI-H522): > 100 µM (inactive)

Q: Which GI50 (LOX IMVI) does the source give for `CC(O)c1cc2c(s1)C(=O)c1scc(C(C)O)c1C2=O` (stereo not given) here?
A: Its GI50 is 0.172 µM (active).

Q: And the GI50 (SNB-75)?
A: The GI50 was 0.29 µM (active).

Q: And the GI50 (OVCAR-5)?
A: The GI50 was 1.37 µM (inactive).

Q: What about the GI50 (DU-145) of the same compound?
A: The GI50 was 0.614 µM (active).

Q: And the GI50 (SK-MEL-2)?
A: Its GI50 is 0.224 µM (active).

Q: And the GI50 (SK-OV-3)?
A: The GI50 was 2.64 µM (inactive).

Q: What about the GI50 (Malme-3M) of the same compound?
A: Its GI50 is 0.172 µM (active).

Q: And the GI50 (Hs-578T)?
A: The GI50 was 0.394 µM (active).

Q: And the GI50 (MCF7)?
A: Its GI50 is 0.413 µM (active).

Q: And the GI50 (NCI-H226)?
A: Its GI50 is 2 µM (inactive).

Q: And the GI50 (786-0)?
A: The GI50 was 2.07 µM (inactive).

Q: And the GI50 (CCRF-CEM)?
A: The GI50 was 1.18 µM (inactive).

Q: What about the GI50 (SW-620) of the same compound?
A: The GI50 was 0.321 µM (active).

Q: What about the GI50 (SR) of the same compound?
A: The GI50 was 0.271 µM (active).

Q: What about the GI50 (HCT-15) of the same compound?
A: Its GI50 is 0.352 µM.

Q: What about the GI50 (M14) of the same compound?
A: Its GI50 is 0.19 µM (active).

Q: And the GI50 (SNB-19)?
A: Its GI50 is 0.667 µM (active).

Q: And the GI50 (HCC 2998)?
A: Its GI50 is 1.66 µM (inactive).

Q: What about the GI50 (TK-10) of the same compound?
A: The GI50 was 1.69 µM (inactive).

Q: What about the GI50 (NCI-H522) of the same compound?
A: The GI50 was 0.628 µM (active).
